Where a name gives a salt, the structure may show the parent alone. Read-outs that look alike come from different tables or passages of the source.
Key:
Format in all cases: cell-based
[1] = tested on: Porphyromonas gingivalis 381-strain (clinical strain); experiment: Evaluation test for biofilm formation inhibition effect against periodontitis pathogenic bacteria (flow cell system, HA disks, turbidity); details: 100µM, 14 days
Description: As with Experiment Example 1, using the flow cell system of FIG. 1, an inhibitory effect against biofilm formation by periodontitis pathogenic bacteria was evaluated for each of the amide compounds produced in Production Examples 1, 3, 5, and 6 (Compounds 1a-1, 1b-1, 1c-1, 1c-2).
Periodontitis pathogenic bacteria Porphyromonas gingivalis 381-strain (clinical strain) was used..
A GAM culture medium containing hemin 5µg/L and menadione 1µg/L was used.
The 381-strain was inoculated in the GAM culture medium, and cultivated until stationary phase (OD550=1.8). Then the culture medium was diluted 20-fold by a fresh GAM culture medium containing the above-mentioned substances.
The test liquid was prepared by dissolving 100µM of each of the Compounds 1a-1, 1b-1, 1c-1, or 1c-2 according to Production Examples 1, 3, 5 and 6 and 100µM of Comparative Compounds 1 and 2 as comparative examples in dimethyl sulfoxide (DMSO), and supplying the resulting DMSO solutions to the above-mentioned bacterial suspensions so that the concentration of each compound becomes 0.1%(v/v).
A DMSO not containing the compound was used as a control test liquid.
The glass cell (4) of the flow cell system (see FIG. 1) was replaced with a stainless cell (3 x 7 x 120mm), and 10 hydroxyapatite (HA) disks (6mm in diameter, 1mm in thickness) were placed in the cell. The HA disks had been subjected to salivary treatment overnight. Each of the test liquids and control test liquids was circulated in the system at a flow rate of 8mL/min for 14 days, Note that the test liquids and the control test liquids were replaced with fresh liquids every two days.
After the cultivation, the HA disks were dipped in 300µL of sterile distilled water, and treated by supersonic wave for 30 minutes at 4°C, The biofilms formed in the HA disks were peeled off and suspended in distilled water. Then, 100µL of the suspension liquid was measured for the turbidity with an absorptiometer (C07500 colorimeter, product of Funakoshi) (measurement wavelength = 550 nm).
A mean OD was found based on the resulting OD values, excluding the minimum and maximum values, Also, a mean value of the turbidities for the Control Test Liquids was found in the same manner as the control mean OD value. A biofilm formation inhibition rate (Inhibition Rate) was found by the following formula. Biofilm Formation Inhibition Rate (%) = […] [formula]

[2] = tested on: Pseudomonas aeruginosa ATCC 27853; experiment: Evaluation test for disinfecting effect, broth dilution method CLSI(M7-A7)2006; details: ATCC27853, 18 h
Source text: (§1) The following test compounds were examined for the disinfecting activities against Pseudomonas aeruginosa, E.. Coli and staphylococcus aureus, according to a broth dilution method of "CLSI(M7-A7)2006" (Clinical and Laboratory Standards Institute, M7-A7, Methods for Dilution Antimicrobial Susceptibility Tests for Bacteria That Grow Aerobically; Approved Standard-Seventh Edition, 2006),
(§2) • Pseudomonas aeruginosa PAO1 • Pseudomonas aeruginosa ATCC 27853 • Escherichia coli ATCC 25922 • Staphylococcus aureus ATCC 29213 • Staphylococcus aureus Methicillin resistant (MRSA) ATCC 43300
(§3) Each of above-mentioned bacteria was inoculated in a TSB culture medium (Bacto TSB Broth, product of BD) for overnight cultivation at 37°C. The culture solution was applied to a TSB agar plate for about a 20-hour cultivation to form colonies. Three to five colonies were taken from the agar plate, and an average colony of them was inoculated in a 4mL TSB culture medium.. The colony was cultivated at 35°C until the number of microorganisms became 1 × 10^8 to 2 x 10^8 CFU/mL. The number of microorganisms with time was found by measuring changes in absorbency at 590nm of culture solution with time. When the turbidity became equivalent to 0.5 McFarland standard, it was determined that the number of microorganisms reached the target level = 1 × 10^8 to 2 × 10^8 CFU/mL.
(§4) The bacillus culture solution thus obtained was diluted 10-fold within 15 minutes, and a 5µL portion was inoculated in each well of an evaluation 96-well microplate. This 96-well microplate was a sterilized 96-well microplate with U-shaped bottoms (Falcon 35-3918: product of BD), and each well was filled with a 100µL portion of MH culture medium (BBL MH Broth: product of BD). Within 15 minutes after inoculation of the bacillus culture solutions, the test compounds were supplied to the well in a manner of 2-fold graded dilution. The cultivation was then carried out at 37°C for 18 hours.
(§5) The MIC was determined as follows. "S (susceptible)" indicates a concentration which caused 80% or more reduction in the diameter of the aggregation deposited in the bottom of the well, compared to when the test liquid is not used. "R (Resistant)" indicates a concentration that caused less than 80% reduction in diameter. The reduction was measured visually.. "I(Intermediate)" indicates a concentration that cannot be measured visually

[3] = tested on: Escherichia coli ATCC 25922; experiment: as above; details: ATCC25922, 18 h
Source text: as §1, §2, §3, §4, §5

[4] = tested on: Pseudomonas aeruginosa PAO1; experiment: as above; details: PAO1, 18 h
Source text: as §1, §2, §3, §4, §5

[5] = tested on: Staphylococcus aureus Methicillin resistant (MRSA) ATCC 43300; experiment: as above; details: 18 h
Source text: as §1, §2, §3, §4, §5

[6] = tested on: Staphylococcus aureus ATCC 29213; experiment: as above; details: ATCC29213, 18 h
Source text: as §1, §2, §3, §4, §5

| SMILES | Mean OD Value ([1]; turbidity at 550 nm of biofilm peeled off HA disks) | inhibition at 100 µM ([1]; Porphyromonas gingivalis, 336 h, relative to control test liquid (Mean Comparison OD Value), read-out: Biofilm Formation Inhibition Rate(%)) [%] | MIC ([2]; read-out: MIC (µg/mL) I) [µg/mL] | MIC ([2]; read-out: MIC (µg/mL) R) [µg/mL] | MIC ([2]; read-out: MIC (µg/mL) S) [µg/mL] | MIC ([3]; read-out: MIC (µg/mL) I) [µg/mL] | MIC ([3]; read-out: MIC (µg/mL) R) [µg/mL] | MIC ([3]; read-out: MIC (µg/mL) S) [µg/mL] | MIC ([4]; read-out: MIC (µg/mL) I) [µg/mL] | MIC ([4]; read-out: MIC (µg/mL) R) [µg/mL] | MIC ([4]; read-out: MIC (µg/mL) S) [µg/mL] | MIC ([5]; read-out: MIC (µg/mL) I) [µg/mL] | MIC ([5]; read-out: MIC (µg/mL) R) [µg/mL] | MIC ([5]; read-out: MIC (µg/mL) S) [µg/mL] | MIC ([6]; read-out: MIC (µg/mL) I) [µg/mL] | MIC ([6]; read-out: MIC (µg/mL) R) [µg/mL] | MIC ([6]; read-out: MIC (µg/mL) S) [µg/mL] |
| --- | --- | --- | --- | --- | --- | --- | --- | --- | --- | --- | --- | --- | --- | --- | --- | --- | --- |
| CCCCCCCCCC(O)CC(=O)NN1CCCC1 (stereo not drawn) [Compound 1c-2, N-(pyrrolidin-1-yl)-3-hydroxy dodecanoyl amide] | 0.041 | 87.8 | – | – | – | – | – | – | – | – | – | – | – | – | – | – | – |
| CCCCCCCCCCCC(=O)NC1CCNC1 (stereo not drawn) [Hydrochloride salt of Compound 1a-1, N-(pyrrolidin-3-yl) dodecanoyl amide] | – | – | 64 | ≤ 32 | ≥ 128 | 8 | ≤ 4 | ≥ 16 | 64 | ≤ 32 | ≥ 128 | 8 | ≤ 4 | ≥ 16 | 8 | ≤ 4 | ≥ 16 |
| CCCCCCCCCC(=O)NC1CCNC1 (stereo not drawn) [Hydrochloride salt of Compound 1a-2, N-(pyrrolidin-3-yl) decanoyl amide] | – | – | – | ≤ 512 | ≥ 1020 | – | ≤ 128 | ≥ 256 | – | ≤ 512 | ≥ 1020 | – | ≤ 128 | ≥ 256 | – | ≤ 128 | ≥ 256 |
| CCCCCCCCCCCC(=O)NC1CCNCC1 [Hydrochloride salt of Compound 1b-1, N-(piperidin-4-yl) dodecanoyl amide] | – | – | 64 | ≤ 32 | ≥ 128 | – | ≤ 8 | ≥ 16 | 64 | ≤ 32 | ≥ 128 | 8 | ≤ 4 | ≥ 16 | 8 | ≤ 4 | ≥ 16 |
| CCCCCCCCCC(=O)NC1CCNCC1 [Hydrochloride salt of Compound 1b-2, N-(piperidin-4-yl) decanoyl amide] | – | – | – | ≤ 512 | ≥ 1020 | – | ≤ 128 | ≥ 256 | – | ≤ 512 | ≥ 1020 | – | ≤ 128 | ≥ 256 | – | ≤ 128 | ≥ 256 |

From patent publication EP2077260B1, “AMIDE COMPOUND OR SALT THEREOF, AND BIOFILM FORMATION INHIBITOR, BIOFILM REMOVER AND BACTERICIDE EACH USING THE AMIDE COMPOUND OR SALT THEREOF” (The University of Tokyo, priority 2006, dated 2008)
